Two molecules from patent US20070010566A1, “Thiazolidinones without basic nitrogen, their production and use as pharmaceutical agents” (priority 2005, published 2007) can be followed below.

Experiment [1] addresses T1, Recombinant human Plk-1 (6×His) (Homo sapiens, UniProt P53350).
T1 construct: 6×His; made in house; host or cells: baculovirus-infected insect cells (Hi5)
Kind of experiment: PLK enzyme assay (33P-γ-ATP incorporation in biotinylated casein, SPA). Type of experiment: biochemical. Conditions: recombinant human Plk-1, casein substrate, 0.5 μmol of ATP, 90 minutes at room temperature; read-out: PLK-1 IC50 [nM] Inhibition. The method, then: Recombinant human Plk-1 (6×His) was purified from baculovirus-infected insect cells (Hi5).
10 ng of (produced in a recombinant manner and purified) PLK enzyme is incubated for 90 minutes at room temperature with biotinylated casein and 33P-γ-ATP as a substrate in a volume of 15 μl in 384-well Greiner small-volume microtiter plates (final concentrations in the buffer: 660 ng/ml of PLK; 0.7 μmol of casein, 0.5 μmol of ATP incl. 400 nCi/ml of 33P-γ-ATP; 10 mmol of MgCl2, 1 mmol of MnCl2; 0.01% NP40; 1 mmol of DTT, protease inhibitors; 0.1 mmol of Na2VO3 in 50 mmol of HEPES, pH 7.5). To complete the reaction, 5 μl of stop solution (500 μmol of ATP; 500 mmol of EDTA; 1% Triton X100; 100 mg/ml of streptavidin-coated SPA beads in PBS) is added. After the microtiter plate is sealed by film, the beads are sedimented by centrifuging (10 minutes, 1500 rpm). The incorporation of 33P-γ-ATP in casein is intended as a measurement of enzyme activity by β-counting.
Test substances are used in various concentrations (0 μmol, as well as in the range of 0.01-30 μmol). The final concentration of the solvent dimethyl sulfoxide is 1.5% in all batches.

Experiment [2] concerns human MaTu breast tumour cells. The experiment in a line: Proliferation assay (crystal violet staining). Conditions: 96 h, incubated for 4 days with test substance, read-out: Inhibition of the Tumour Cell Proliferation (MaTu) IC50. Type of experiment: cell-based. The protocol: Cultivated human MaTu breast tumour cells were flattened out at a density of 5000 cells/measuring point in a 96-well multititer plate in 200 μl of the corresponding growth medium. After 24 hours, the cells of one plate (zero-point plate) were colored with crystal violet (see below), while the medium of the other plates was replaced by fresh culture medium (200 μl), to which the test substances were added at various concentrations (0 μm, as well as in the range of 0.01-30 μm; the final concentration of the solvent dimethyl sulfoxide was 0.5%). The cells were incubated for 4 days in the presence of test substances. The cell proliferation was determined by coloring the cells with crystal violet: the cells were fixed by adding 20 μl/measuring point of an 11% glutaric aldehyde solution for 15 minutes at room temperature. After three washing cycles of the fixed cells with water, the plates were dried at room temperature. The cells were colored by adding 100 μl/measuring point of a 0.1% crystal violet solution (pH was set at 3 by adding acetic acid). […] The extinction was determined by photometry at a wavelength of 595 nm. The change of cell growth, in percent, was calculated by standardization of the measured values to the extinction values of the zero-point plate (=0%) and the extinction of the untreated (0 μm) cells (=100%).

T1 sequence (P53350 whole entry): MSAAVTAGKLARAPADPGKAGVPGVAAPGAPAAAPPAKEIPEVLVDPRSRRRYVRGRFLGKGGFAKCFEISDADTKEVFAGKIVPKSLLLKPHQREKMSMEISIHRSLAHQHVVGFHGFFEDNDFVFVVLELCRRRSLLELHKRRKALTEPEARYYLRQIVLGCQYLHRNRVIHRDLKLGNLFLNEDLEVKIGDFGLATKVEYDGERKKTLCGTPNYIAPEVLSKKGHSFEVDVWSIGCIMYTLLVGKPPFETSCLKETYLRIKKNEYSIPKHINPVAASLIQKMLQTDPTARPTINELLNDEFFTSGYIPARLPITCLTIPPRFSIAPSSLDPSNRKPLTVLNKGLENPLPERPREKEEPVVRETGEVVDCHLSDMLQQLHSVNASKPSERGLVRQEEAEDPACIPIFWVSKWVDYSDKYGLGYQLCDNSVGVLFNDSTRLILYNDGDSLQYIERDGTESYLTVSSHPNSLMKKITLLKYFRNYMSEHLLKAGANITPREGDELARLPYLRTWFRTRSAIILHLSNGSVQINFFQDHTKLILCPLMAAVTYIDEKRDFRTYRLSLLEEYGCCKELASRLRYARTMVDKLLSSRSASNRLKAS

With `CCn1c(=C(C#N)C(=O)NCC#N)sc(=Cc2nc[nH]c2C)c1=O` [Example 8], the IC50 in experiment [1] is 250 nM; in experiment [2] it was 3600 nM.

For the molecule `CCn1c(=C(C#N)C(=O)NCC(F)(F)F)sc(=Cc2nc[nH]c2C)c1=O` [Example 9], the IC50 in experiment [1] is 230 nM; in experiment [2], 4200 nM.
